Test results: US20180344748A1, “METHODS AND COMPOSITIONS FOR PREVENTING OR TREATING CHRONIC INFLAMMATORY DISEASES” (ENTERIN LABORATORIES, INC., priority 2017, published 2018)

Legend:
Format in all cases: cell-based
human neutrophils = experiment: Chemotaxis assay, human neutrophils; conditions: bell shaped concentration curve; FIG. 3A
Description: (§1) FIGS. 3A-F: α-Synuclein is a chemoattractant dependent on CD11b. Assays were conducted as described in the examples below. The average of 3 independent assays for each sample is presented. The concentration of the α-synuclein aggregate is in terms of the monomer. A positive control, FMLP, is noted in black. NAc 1-21, the N-acetylated peptide corresponding to the first 21 amino acids of α-synuclein; 1-25, a peptide corresponding to the first 25 amino acids. FIG. 3A=Human Neutrophils; FIG. 3B=Human monocytes; FIGS. 3C and 3D=Representative photos of the cellular response. FIG. 3E=Neutrophils from CD11b −/− or wild type mice (0.5×10^6/ml), assayed as described in the examples. FIG. 3F=Human neutrophils incubated in the presence of anti-CD11b antibody or control (50 μg/ml each). CM, control media (negative control)
(§2) Chemotaxis, or the movement of cells in response to a chemical stimulus, is routinely measured in a Boyden chamber. In this apparatus, immune cells are attached to one side of a membrane containing pores through which the immune cells can traffic. On the other side of the membrane a chemoattractant is introduced. Over the course of several hours the immune cells migrate from the side of the membrane on which they were initially placed to the side exposed to the chemoattractant. […] After 24 hours the number of immune cells that have migrated to towards the chemoattractant are counted. […]

human monocytes = experiment: Chemotaxis assay, human monocytes; conditions: bell shaped concentration curve; FIG. 3B
Description: as §1, §2

[1] = tested on: human monocyte derived dendritic cells; experiment: Dendritic cell maturation, flow cytometry of surface markers; conditions: 10 μM, 48 h, FIG. 4
Description: FIG. 4: Human monocyte derived dendritic cells were incubated at 5×10^5/ml in the presence of recombinant monomeric or aggregated alpha-synuclein, and the NAc 1-21 amino terminal peptide of alpha-synuclein (each at a final concentration of 10 μM) for 48 h before they were immunostained and analyzed by flow cytometry for the expression of the indicated surface molecules. E. coli lipopolysaccharide (LPS) (100 ng/ml) was included as a positive control. Shown are the results of one experiment representative of three. The ordinate of […].
Chemotaxis assays followed published procedures. De et al. (2000). Neutrophils and monocytes were isolated from the blood of healthy human donors as described. Id. Recombinant human α-synuclein (lot #20162050, endotoxin contamination 18.6 EU/mg) was from Proteos, Inc. via the Michael J. Fox Foundation. The α-synuclein aggregates were made following a protocol provided by Proteos. […]
Human monocyte derived dendritic cells were exposed for 2 days to α-synuclein monomer, aggregate, and N—Ac 1-21 peptide and then analyzed by flow cytometry to measure the extent of phenotypic maturation, using CD80, CD83, CD86, HLA-ABC, and HLA-DR as determinants (FIG. 4).

Row | Substance | chemotactic activity towards human neutrophils (human neutrophils) | chemotactic activity towards human monocytes (human monocytes) | dendritic cell maturation (CD80, CD83, CD86, HLA-ABC, HLA-DR) [1]
1 | peptide, extending to residue 25: a peptide corresponding to the first 25 amino acids of α-synuclein, lacking the N-acetyl moiety | inactive | inactive | –
2 | N-acetylated peptide: the N-acetylated peptide corresponding to the first 21 amino acids of α-synuclein | retained the chemotactic activity of the full-length protein | retained the chemotactic activity of the full-length protein | did not
